≈ marks a conversion by molar mass, not a printed value.
How the values were obtained:
[1] = target: T1, Carnitine O-palmitoyltransferase 1, muscle isoform (Homo sapiens, UniProt Q92523); test: SUPPLEMENTARY: Inhibition of Carnitine palmitoyltransferase 1, muscle isoform; parameters: species or system Muscle tissue
T1 sequence (Q92523 whole entry): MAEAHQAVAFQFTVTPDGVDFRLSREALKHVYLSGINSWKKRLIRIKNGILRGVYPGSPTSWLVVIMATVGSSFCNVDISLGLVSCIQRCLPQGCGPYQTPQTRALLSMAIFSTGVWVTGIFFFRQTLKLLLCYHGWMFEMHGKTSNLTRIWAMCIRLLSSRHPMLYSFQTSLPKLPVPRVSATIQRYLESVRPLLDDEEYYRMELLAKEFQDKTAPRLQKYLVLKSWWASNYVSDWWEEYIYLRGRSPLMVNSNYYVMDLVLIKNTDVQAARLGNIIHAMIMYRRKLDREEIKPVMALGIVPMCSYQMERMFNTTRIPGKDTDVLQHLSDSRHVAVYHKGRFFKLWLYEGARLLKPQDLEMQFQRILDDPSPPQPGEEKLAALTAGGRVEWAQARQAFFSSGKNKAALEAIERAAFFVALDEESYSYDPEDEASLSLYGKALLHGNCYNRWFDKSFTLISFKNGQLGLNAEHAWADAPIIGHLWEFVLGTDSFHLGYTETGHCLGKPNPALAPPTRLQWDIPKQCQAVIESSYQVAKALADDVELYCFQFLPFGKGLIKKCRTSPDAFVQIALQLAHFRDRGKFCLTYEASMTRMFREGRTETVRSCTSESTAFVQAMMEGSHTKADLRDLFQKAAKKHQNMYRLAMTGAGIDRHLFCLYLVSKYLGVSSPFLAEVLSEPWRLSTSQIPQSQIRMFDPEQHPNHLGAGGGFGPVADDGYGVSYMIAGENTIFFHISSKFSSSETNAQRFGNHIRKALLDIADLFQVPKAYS

[2] = target: T2, Carnitine O-palmitoyltransferase 2, mitochondrial (Homo sapiens, UniProt P23786); test: (§1) SUPPLEMENTARY: Inhibition of Carnitine palmitoyltransferase 2
T2 sequence (P23786 whole entry): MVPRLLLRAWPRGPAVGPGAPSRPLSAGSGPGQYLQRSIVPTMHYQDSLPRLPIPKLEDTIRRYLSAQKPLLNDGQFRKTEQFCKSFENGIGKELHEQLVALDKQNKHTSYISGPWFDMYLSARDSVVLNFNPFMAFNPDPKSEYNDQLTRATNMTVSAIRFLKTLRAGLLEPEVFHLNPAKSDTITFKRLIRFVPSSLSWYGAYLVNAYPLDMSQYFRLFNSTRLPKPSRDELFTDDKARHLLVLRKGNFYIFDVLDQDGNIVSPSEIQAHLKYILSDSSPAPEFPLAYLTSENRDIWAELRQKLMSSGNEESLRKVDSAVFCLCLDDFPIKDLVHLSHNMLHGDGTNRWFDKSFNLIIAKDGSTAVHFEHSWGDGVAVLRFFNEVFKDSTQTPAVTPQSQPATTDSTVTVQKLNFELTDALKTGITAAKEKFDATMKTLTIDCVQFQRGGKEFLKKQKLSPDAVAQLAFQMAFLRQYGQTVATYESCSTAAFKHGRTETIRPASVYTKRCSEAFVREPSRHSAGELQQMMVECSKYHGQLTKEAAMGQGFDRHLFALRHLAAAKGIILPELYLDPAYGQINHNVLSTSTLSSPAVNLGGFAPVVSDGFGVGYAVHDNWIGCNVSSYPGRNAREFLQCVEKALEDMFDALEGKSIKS

[3] = target: T3, Carnitine O-palmitoyltransferase 2, mitochondrial (Rattus norvegicus, UniProt P18886); test: as §1
T3 sequence (P18886 whole entry): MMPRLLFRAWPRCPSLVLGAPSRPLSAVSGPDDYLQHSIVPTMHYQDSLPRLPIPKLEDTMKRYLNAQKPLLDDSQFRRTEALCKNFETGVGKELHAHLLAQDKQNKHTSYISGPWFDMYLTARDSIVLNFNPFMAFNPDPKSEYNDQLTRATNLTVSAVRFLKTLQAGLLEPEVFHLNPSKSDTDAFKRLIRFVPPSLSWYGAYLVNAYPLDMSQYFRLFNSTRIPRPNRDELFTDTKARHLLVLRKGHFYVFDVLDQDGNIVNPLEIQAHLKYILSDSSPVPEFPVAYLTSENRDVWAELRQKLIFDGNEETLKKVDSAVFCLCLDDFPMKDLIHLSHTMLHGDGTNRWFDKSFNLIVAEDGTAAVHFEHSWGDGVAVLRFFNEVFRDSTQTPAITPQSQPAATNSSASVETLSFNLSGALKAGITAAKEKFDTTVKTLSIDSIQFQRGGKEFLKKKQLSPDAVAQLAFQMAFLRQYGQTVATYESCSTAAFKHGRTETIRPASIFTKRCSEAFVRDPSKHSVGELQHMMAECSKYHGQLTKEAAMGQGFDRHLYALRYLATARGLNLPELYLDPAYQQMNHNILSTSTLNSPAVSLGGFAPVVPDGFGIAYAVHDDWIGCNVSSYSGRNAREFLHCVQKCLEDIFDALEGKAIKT

[4] = target: T4, Carnitine O-palmitoyltransferase 1, liver isoform (Homo sapiens, UniProt P50416); test: (§2) SUPPLEMENTARY: Inhibition of Carnitine palmitoyltransferase 1, liver isoform
T4 sequence (P50416 whole entry): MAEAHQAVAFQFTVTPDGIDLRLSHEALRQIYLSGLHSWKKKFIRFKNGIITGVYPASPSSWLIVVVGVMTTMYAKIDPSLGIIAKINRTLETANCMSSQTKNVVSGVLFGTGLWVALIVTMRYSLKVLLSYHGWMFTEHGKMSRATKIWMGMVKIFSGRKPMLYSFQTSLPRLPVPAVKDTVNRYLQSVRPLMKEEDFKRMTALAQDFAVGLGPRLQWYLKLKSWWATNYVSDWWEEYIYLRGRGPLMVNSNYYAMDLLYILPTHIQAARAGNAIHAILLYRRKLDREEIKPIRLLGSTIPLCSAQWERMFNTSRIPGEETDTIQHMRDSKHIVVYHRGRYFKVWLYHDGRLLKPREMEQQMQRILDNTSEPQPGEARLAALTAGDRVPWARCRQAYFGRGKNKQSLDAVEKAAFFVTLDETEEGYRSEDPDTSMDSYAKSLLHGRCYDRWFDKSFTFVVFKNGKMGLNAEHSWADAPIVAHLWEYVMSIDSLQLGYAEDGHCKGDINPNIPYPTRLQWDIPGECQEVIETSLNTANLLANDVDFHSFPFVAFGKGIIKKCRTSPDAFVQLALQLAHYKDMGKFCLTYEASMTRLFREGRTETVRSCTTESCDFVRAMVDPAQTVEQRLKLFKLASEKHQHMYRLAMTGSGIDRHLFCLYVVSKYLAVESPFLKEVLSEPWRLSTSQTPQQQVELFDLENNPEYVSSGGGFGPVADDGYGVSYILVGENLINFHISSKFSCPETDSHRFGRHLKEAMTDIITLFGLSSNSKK

[5] = target: T5, Carnitine O-palmitoyltransferase 1, liver isoform (Rattus norvegicus, UniProt P32198); test: as §2
T5 sequence (P32198 whole entry): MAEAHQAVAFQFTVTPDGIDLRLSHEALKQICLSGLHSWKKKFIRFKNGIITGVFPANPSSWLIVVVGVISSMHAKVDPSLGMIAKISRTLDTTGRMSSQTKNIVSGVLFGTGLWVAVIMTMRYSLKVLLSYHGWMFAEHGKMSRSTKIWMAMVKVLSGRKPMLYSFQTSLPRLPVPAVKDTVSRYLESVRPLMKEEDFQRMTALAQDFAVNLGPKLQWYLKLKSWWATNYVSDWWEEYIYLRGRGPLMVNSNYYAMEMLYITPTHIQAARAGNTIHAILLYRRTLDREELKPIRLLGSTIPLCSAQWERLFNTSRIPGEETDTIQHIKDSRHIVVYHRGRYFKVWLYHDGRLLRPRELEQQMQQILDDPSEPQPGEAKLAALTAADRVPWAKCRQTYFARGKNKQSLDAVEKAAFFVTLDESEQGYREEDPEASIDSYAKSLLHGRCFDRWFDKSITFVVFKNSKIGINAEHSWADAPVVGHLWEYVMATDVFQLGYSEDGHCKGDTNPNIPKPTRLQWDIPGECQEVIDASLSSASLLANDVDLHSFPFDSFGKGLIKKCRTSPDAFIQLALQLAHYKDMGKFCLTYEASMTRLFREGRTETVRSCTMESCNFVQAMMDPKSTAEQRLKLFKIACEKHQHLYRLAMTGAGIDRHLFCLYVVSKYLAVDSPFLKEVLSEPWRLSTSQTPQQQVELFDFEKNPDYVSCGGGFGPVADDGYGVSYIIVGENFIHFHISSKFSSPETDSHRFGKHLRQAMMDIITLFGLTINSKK

[6] = SUPPLEMENTARY: Lyophilisation Solubility Assay (LYSA); format: physicochemical; conditions: read-out: Kinetic_solubility
[7] = SUPPLEMENTARY: Lipophilicity (log D) Determination by high-throughput shake-flask; format: physicochemical; conditions: octanol/water
[8] = SUPPLEMENTARY: PAMPA permeability assay; format: physicochemical; conditions: read-out: Permeability

Compound | IC50 [1] | IC50 [2] | IC50 [3] | IC50 [4] | IC50 [5] | solubility kinetic [6] | logD [7] | Papp [8]
O=C1CCN1c1cccc(-c2n[nH]c([C@H]3CCCCN3C(=O)COc3ccccc3)n2)c1 | > 100 µM | 44.2 µM | 74.7 µM | 0.114 µM | 0.316 µM | 33 µg/mL (≈ 76.5 µM) | 2.9 | 2 ×10⁻⁶ cm/s
O=C(COc1ccccc1)N1CCCC[C@@H]1c1noc(-c2cnc3ccccc3n2)n1 | > 100 µM | > 100 µM | > 100 µM | 0.176 µM | 0.235 µM | 12 µg/mL (≈ 28.9 µM) | 3.22 | 4.18 ×10⁻⁶ cm/s
O=C1CCCN1c1cccc(-c2nc([C@H]3CCCCN3C(=O)COc3ccccc3)no2)c1 | > 100 µM | 38.4 µM | > 100 µM | 0.142 µM | 0.165 µM | 9 µg/mL (≈ 20.2 µM) | 3.07 | 2.33 ×10⁻⁶ cm/s
O=C(O)c1ccc(NC(=O)c2ccc3c(c2)N(S(=O)(=O)c2cccc(Cl)c2)CC[S+]3[O-])cc1 (configuration not stated) | 52.2 µM | > 100 µM | > 100 µM | 0.13 µM | 0.0955 µM | 3 µg/mL (≈ 5.94 µM) | -0.14 | 0.28 ×10⁻⁶ cm/s
Cc1cc(C)cc(S(=O)(=O)N2CCS(=O)(=O)c3ccc(C(=O)Nc4ccc(C(=O)O)cc4)cc32)c1 | 5.3 µM | 2.8 µM | 10.5 µM | 0.031 µM | 0.0181 µM | 481 µg/mL (≈ 935 µM) | 0.55 | 1.95 ×10⁻⁶ cm/s
CN(C)C(=O)CCC(=O)Nc1cc(F)cc(-c2noc([C@H]3CCCCN3C(=O)COc3ccccc3)n2)c1 | > 100 µM | 14.1 µM | > 100 µM | 0.111 µM | 0.253 µM | < 1 µg/mL | 3.16 | 0.83 ×10⁻⁶ cm/s
Nc1cc(-c2nc([C@H]3CCCCN3C(=O)COc3ccccc3)no2)ccn1 | > 100 µM | 42.7 µM | > 100 µM | 0.11 µM | 0.372 µM | 61 µg/mL (≈ 161 µM) | 2.47 | 4.86 ×10⁻⁶ cm/s
O=C(COc1ccccc1)N1CCCC[C@@H]1c1noc(-c2cccc3[nH]cnc23)n1 | > 100 µM | 84.2 µM | > 100 µM | 0.0873 µM | 0.189 µM | 30 µg/mL (≈ 74.4 µM) | 2.84 | 1.67 ×10⁻⁶ cm/s
COc1ccc(Cl)cc1CN1C(=O)OC(C)(C)c2ccc(C(=O)Nc3ccc(CC(=O)O)cc3)cc21 | 2.33 µM | > 100 µM | > 100 µM | 0.147 µM | 0.0419 µM | 26 µg/mL (≈ 51.1 µM) | 0.51 | 1.71 ×10⁻⁶ cm/s
COc1ccc(Cl)cc1S(=O)(=O)c1nn(C)c2ccc(C(=O)Nc3ccc(CC(=O)O)cc3)cc12 | 1.73 µM | > 100 µM | > 100 µM | 0.166 µM | 0.125 µM | 70 µg/mL (≈ 136 µM) | 0.12 | 0.39 ×10⁻⁶ cm/s
CC(=O)Nc1ccc(F)c(-c2n[nH]c([C@H]3CCCCN3C(=O)COc3ccccc3)n2)c1 | > 100 µM | > 100 µM | > 100 µM | 0.332 µM | 0.312 µM | 181 µg/mL (≈ 414 µM) | 2.5 | 4.32 ×10⁻⁶ cm/s
CC(=O)NCc1cccc(-c2nc([C@H]3CCCCN3C(=O)COc3ccccc3)no2)c1 | > 100 µM | 29.1 µM | > 100 µM | 0.0993 µM | 0.308 µM | 127 µg/mL (≈ 292 µM) | 2.64 | 2.98 ×10⁻⁶ cm/s
CCCN(c1cc(C(=O)Nc2ccc(CC(=O)O)cc2)cc2c1OCO2)S(=O)(=O)c1cc(Cl)ccc1OC | 0.955 µM | > 100 µM | > 100 µM | 0.191 µM | 0.184 µM | 517 µg/mL (≈ 922 µM) | 0.87 | 3.45 ×10⁻⁶ cm/s
COc1ccc(Cl)cc1Cn1cc(C(=O)O)c2ccc(C(=O)Nc3ccccc3)cc21 | > 100 µM | > 100 µM | > 100 µM | 0.0996 µM | 0.104 µM | < 1 µg/mL | 3.13 | 0.53 ×10⁻⁶ cm/s

Source: ChEMBL document CHEMBL3431459, “Roche carnitine palmitoyltransferase modulator screening data (supplementary data associated with the publication CHEMBL2216752)”
